Entries after “also recorded” stand apart in the source; their conditions may differ.
How the values were obtained:
[1] = test system: Porphyromonas Gingivalis and Prevotella Intermedia; assay: Lethal photosensitization of oral pathogens by methylene blue and red-filtered halogen light (colony count); assay type: cell-based; conditions: for Percent of Living Bacteria: mean of both species +/- SD
Procedure: Suitable stain dosages for providing lethal sensitization of oral pathogens are determined in vitro by the following procedure. An objective is to determine the minimum duration of light exposure and minimum agent dilution required to achieve at least a 50% reduction in bacteria counts. Experimental tests are performed on two common pathogens using a continuously working, high intensity, red filtered halogen lamp. Red light from the filtered halogen lamp is transmitted through a flexible light guide to radiate downwardly onto petri dishes containing samples of live bacteria of species Porphyromonas Gingivalis and Prevotella Intermedia using the protocols described below. Bacteria. Prevoltella Intermedia is isolated from patient sample material, identified in the laboratory using standard diagnostic test systems (Remel Inc., Lenexa, Kans., USA) and is maintained by twice-weekly subculture in thioglycollate medium (Becton Dickinson and Co, Sparks, Md., USA). P. gingivalis ATCC 33277 obtained from Remel Inc., is maintained by a twice-weekly subculture on CDC anaerobe blood agar (Becton Dickinson and Co, USA) and in thioglycollate medium (Becton Dickinson and Co, USA). Light Source. The source for light energy is a continuously working, high intensity halogen lamp having a built-in 250-Watt quartz halogen light source, model I-250 supplied by Medithon, New York, N.Y., USA. Such lights are customarily employed for ear, nose or throat procedures. The light is transmitted through a flexible light guide and filtered to maintain maximum energy output at wavelengths in the vicinity of about 650 nm using a broadband red filter (Edmund Optics Inc., Barrington, N.J., USA). The light output power density measured at 3 cm distance from the end of the light guide with filter is about 50 milliwatts/cm2. Photosensitizer. […] Lethal photosensitization of P. Intermedia. Petri dishes containing CDC anaerobe blood agar (Becton Dickinson and Co, USA) are inoculated with 0.5 ml of broth containing 5×10^5 CFU/ml and left closed at room temperature for about 10 minutes to let the broth penetrate the agar media. […] Only plates with concentrations of 0.01%, and 0.025% are used in the experiment with 20 min light exposure. Four plates are used for each experiment. […] The controls are covered to protect them from ambient light. […] A total of 108 subcultures is used for the experiment. Plates are incubated in anaerobic conditions in the jars using anaerobic pack kits (BBL GasPak Plus, Becton Dickinson and Co, Sparks, Md., USA) at 37° C. for 24 hours. Samples of the resulting culture growth are taken from each plate with sterile […] standard loop, dispensed in 1 ml of sterile NS and placed at the same media. Cultures are incubated at anaerobic conditions at 37° C. for another 24 hours, and after that the resulting colony count is performed on each plate. Lethal photosensitization of P. Gingivalis. Serial dilutions of the P. gingivalis culture are prepared from the initial culture preserved on plates using 1:L sterile standard loop (Becton Dickinson and Co, USA) and sterile NS. A Vitek calorimeter (Hach Company, Loveland, Colo., USA) is used to achieve a final concentration of about 5×10^3 CFU/ml from an initial 0.5 standard McFarland suspension of 10^8 CFU/ml. Plates containing CDC anaerobic blood agar (Becton Dickinson and Co, USA) are inoculated with the resulting suspension using sterile 10:L standard loops (Becton Dickinson and Co, USA). […] Plates are also incubated at 37° C. in the tightly closed jars supplied with anaerobic pack kits (BBL GasPak Plus, Becton Dickinson and Co, USA) for 24 hours, and the resulting colony count is performed on each plate.

[2] = test system: P. gingivalis ATCC 33277; assay: Lethal photosensitization of P. Gingivalis (colony count); assay type: cell-based
Procedure: Suitable stain dosages for providing lethal sensitization of oral pathogens are determined in vitro by the following procedure. An objective is to determine the minimum duration of light exposure and minimum agent dilution required to achieve at least a 50% reduction in bacteria counts. Experimental tests are performed on two common pathogens using a continuously working, high intensity, red filtered halogen lamp. Red light from the filtered halogen lamp is transmitted through a flexible light guide to radiate downwardly onto petri dishes containing samples of live bacteria of species Porphyromonas Gingivalis and Prevotella Intermedia using the protocols described below. Bacteria. Prevoltella Intermedia is isolated from patient sample material, identified in the laboratory using standard diagnostic test systems (Remel Inc., Lenexa, Kans., USA) and is maintained by twice-weekly subculture in thioglycollate medium (Becton Dickinson and Co, Sparks, Md., USA). P. gingivalis ATCC 33277 obtained from Remel Inc., is maintained by a twice-weekly subculture on CDC anaerobe blood agar (Becton Dickinson and Co, USA) and in thioglycollate medium (Becton Dickinson and Co, USA). Light Source. […] The light output power density measured at 3 cm distance from the end of the light guide with filter is about 50 milliwatts/cm2. […]

Q: Which results are given for `CN(C)c1ccc2nc3ccc(=[N+](C)C)cc-3sc2c1` [methylene blue]?
A: reduction of bacteria without exposure to light ([1]; 0.05% methylene blue alone): insignificant; difference between exposure for 10 and 20 minutes ([1]; either species, any concentration of methylene blue): No statistically significant difference; killing of bacteria without halogen light ([1]; methylene blue 0.001% or 0.025%, without halogen light): nor concentrations of methylene blue of 0.001% or 0.025%, without halogen light, appeared to be effective in killing bacteria; bactericidal effect with red-filtered light ([1]; methylene blue 0.01% or higher, exposure less than 10 minutes, accumulated energy 30 J/cm2, both species): bactericidal effect; Percent of Living Bacteria ([1]; methylene blue 0.01%, exposure to red light 0): 70 +/− 11%; Percent of Living Bacteria ([1]; methylene blue 0.01%, red light 1 min): 73 +/− 6%; Percent of Living Bacteria ([1]; methylene blue 0.01%, red light 5 min): 69 +/− 7%; Percent of Living Bacteria ([1]; methylene blue 0.01%, red light 10 min): 55 +/− 6%; Percent of Living Bacteria ([1]; methylene blue 0.01%, red light 20 min): 51 +/− 4%; Percent of Living Bacteria ([1]; methylene blue 0.025%, exposure to red light 0): 75 +/− 14%; reduction in bacteria counts ([1]; methylene blue 0.025%, light exposure 5 min): Significant reduction in bacteria counts; Percent of Living Bacteria ([1]; methylene blue 0.025%, red light 1 min): 67 +/− 4%; Percent of Living Bacteria ([1]; methylene blue 0.025%, red light 5 min): 47 +/− 6%; Percent of Living Bacteria ([1]; methylene blue 0.025%, red light 10 min): 48 +/− 8%; Percent of Living Bacteria ([1]; methylene blue 0.025%, red light 20 min): 49 +/− 5%; killing with duration of red light ([1]; methylene blue 0.025%, time intervals 5 and 10 min): statistically significant increased killing with duration; reduction in bacteria counts ([1]; methylene blue 0.05% and higher, light exposure 1 min): Significant reduction in bacteria counts; Percent of Living Bacteria ([1]; methylene blue 0.05%, exposure to red light 0): 68 +/− 12%; Percent of Living Bacteria ([1]; methylene blue 0.05%, red light 1 min): 53 +/− 10%; Percent of Living Bacteria ([1]; methylene blue 0.05%, red light 5 min): 32 +/− 7%; Percent of Living Bacteria ([1]; methylene blue 0.05%, red light 10 min): 32 +/− 9%; killing with duration of red light ([1]; methylene blue 0.05%, time intervals 1 min, 5 min and 10 min): statistically significant increased killing with duration; bacterial count reduction ([1]; methylene blue 0.075% and 0.1%, light exposure 1 min, both cultures): statistically significant bacterial count reduction; bactericidal effect without light exposure ([1]; methylene blue 0.075% and 0.1%, no red light): significant bactericidal effect; also recorded: significantly bactericidal; Percent of Living Bacteria ([1]; methylene blue 0.075%, exposure to red light 0): 51 +/− 10%; Percent of Living Bacteria ([1]; methylene blue 0.075%, red light 1 min): 45 +/− 5%; Percent of Living Bacteria ([1]; methylene blue 0.075%, red light 5 min): 26 +/− 5%; Percent of Living Bacteria ([1]; methylene blue 0.075%, red light 10 min): 25 +/− 5%; Percent of Living Bacteria ([1]; methylene blue 0.1%, exposure to red light 0): 35 +/− 9%; Percent of Living Bacteria ([1]; methylene blue 0.1%, red light 1 min): 39 +/− 12%; Percent of Living Bacteria ([1]; methylene blue 0.1%, red light 5 min): 28 +/− 9%; Percent of Living Bacteria ([1]; methylene blue 0.1%, red light 10 min): 24 +/− 4%; bacterial killing without light exposure ([2]; methylene blue 0.01%, no light, P. gingivalis culture): statistically significant bacterial killing; bactericidal effect on P. gingivalis ([2]; methylene blue 0.1%): bactericidal effect
